Measured values taken from patent US20100152044A1, “Plant growth regulation” (Bayer CropScience GmbH, priority 2004, published 2010).

Legend:
[1] = test system: wheat (Triticum aestivum, variety TRISO); test: Root growth assay, seed treatment, wheat; type: in vivo; settings: Root Growth of 100 is set as the standard, wet root weight 16 (±2) days post treatment
Description: (§1) Plant roots are a highly proliferative tissue that allows an easy accessible, cheap and short term screening method for plant growth regulators. The results obtained can easily be transferred to the overall effects on a plant of plant growth regulators identified by such a system. By using this root assay one is enabled to determine the effect of a seed treatment to root growth and/or germination and/or changes in habitat of germinated plants in order to identify the possible use as a yield enhancer. Two seeds of wheat (Triticum aestivum, variety “TRISO”) or 1 seed of maize (Zea mays, variety “LORENZO”) per hole in a plastic tray which contains an architecture of 8×13 holes were placed on compost soil covered with sand. These seeds were treated with 100 μl/hole, which creates an application volume of approx. 1200 l/ha, of a compound solution at active ingredient rates equivalent to 100, 10 and 1 g a.i./ha of each compound using an robotic application system (Lizzy Spray Robotics). Six replicates in a row of each compound and concentration were done. The outer rim of the above defined plastic tray was untreated to avoid false negative effects and the middle row (No. 7) was used as untreated control. The treated seeds were allowed to dry for approx. 4 hours and subsequently covered with sand and watered. The trays were stored in climate chambers with 14 hours lighting at a temperature of 24° C. (±2) at daytime and 16° C. (±2) at night and relative humidity (rH) of 60% and daily watered. Assessments were done 16 (±2) days post treatment by counting the germinated plants and assessing the phytotoxicity symptoms and percentage. In addition, the roots were washed out and the shoots were cut directly above the seed and the wet roots were placed on dry paper towels for approximately 30 minutes and weighted afterwards. This procedure provides a similar grade of moisture to the roots so that a comparison of the weights is possible.
(§2) The effects observed concerning Root Growth given in column 2 (Root Growth of “100” is set as the standard) are directed to concentrations that are equivalent to 100, 10, 1 g a.i./ha, each.

[2] = test system: maize (Zea mays, variety LORENZO); test: Root growth assay, seed treatment, maize; type: in vivo; settings: Root Growth of 100 is set as the standard, wet root weight 16 (±2) days post treatment
Description: as §1, §2

## O=C1NC(=O)C(c2c[nH]c3ccccc23)=C1c1c[nH]c2ccccc12 [Compound 1, 3,4-Di-(1H-indol-3-yl)pyrrole-2,5-dione]
[1]; 1 g a.i./ha
  Root Growth: 69
[1]; 10 g a.i./ha
  Root Growth: 129
[1]; 100 g a.i./ha
  Root Growth: 133

## O=C1NC(=O)C(c2ccccc2)=C1Nc1cccc(Cl)c1 [Compound 1.1, 3-(3-Chlorophenylamino)-4-phenylpyrrole-2,5-dione]
other
  melting point: 187 °C

## O=C1NC(=O)C(c2ccccc2)=C1Nc1ccc(Cl)c(Cl)c1 [Compound 1.2, 3-(3,4-dichlorophenylamino)-4-phenylpyrrole-2,5-dione]
[2]; 1 g a.i./ha
  Root Growth: 130
[2]; 10 g a.i./ha
  Root Growth: 117
[2]; 100 g a.i./ha
  Root Growth: 141
other
  melting point: 242 °C

## O=C1NC(=O)C(c2ccccc2)=C1Nc1ccc(OC(F)(F)F)cc1 [Compound 1.6, 3-Phenyl-4-(4-trifluoromethoxyphenylamino)pyrrole-2,5-dione]
other
  melting point: 206 °C

## O=C1NC(=O)C(c2ccccc2C(F)(F)F)=C1Nc1ccc(O)c(Cl)c1 [Compound 1.8]
[2]; 1 g a.i./ha
  Root Growth: 114
[2]; 10 g a.i./ha
  Root Growth: 144
[2]; 100 g a.i./ha
  Root Growth: 123

## O=C1NC(=O)C(c2cc(Cl)sc2Cl)=C1Nc1ccc(O)c(Cl)c1 [Compound 1.10]
[1]; 1 g a.i./ha
  Root Growth: 101
[1]; 10 g a.i./ha
  Root Growth: 134
[1]; 100 g a.i./ha
  Root Growth: 77

## O=C1NC(=O)C(c2ccc(Cl)cc2)=C1Nc1ccc(O)c(C(=O)O)c1 [Compound 1.12]
[2]; 1 g a.i./ha
  Root Growth: 122
[2]; 10 g a.i./ha
  Root Growth: 172
[2]; 100 g a.i./ha
  Root Growth: 199

## Cc1ccc(NC2=C(c3ccc(Br)cc3)C(=O)NC2=O)cc1Cl [Compound 1.16]
[2]; 1 g a.i./ha
  Root Growth: 113
[2]; 10 g a.i./ha
  Root Growth: 112
[2]; 100 g a.i./ha
  Root Growth: 158
[1]; 1 g a.i./ha
  Root Growth: 84
[1]; 10 g a.i./ha
  Root Growth: 171
[1]; 100 g a.i./ha
  Root Growth: 129

## O=C1NC(=O)C(c2ccc(Cl)cc2)=C1Nc1ccc(C(=O)O)cc1 [Compound 1.19]
[1]; 1 g a.i./ha
  Root Growth: 148
[1]; 10 g a.i./ha
  Root Growth: 183
[1]; 100 g a.i./ha
  Root Growth: 91

## O=C1NC(=O)C(c2c(Cl)cccc2Cl)=C1Nc1cccc(Cl)c1 [Compound 1.20]
[2]; 1 g a.i./ha
  Root Growth: 142
[2]; 10 g a.i./ha
  Root Growth: 114
[2]; 100 g a.i./ha
  Root Growth: 125

## CN(C)CCCn1cc(C2=C(c3c[nH]c4ccccc34)C(=O)NC2=O)c2ccccc21 [Compound 8]
[2]; 1 g a.i./ha
  Root Growth: 109
[2]; 10 g a.i./ha
  Root Growth: 150
[2]; 100 g a.i./ha
  Root Growth: 93
[1]; 1 g a.i./ha
  Root Growth: 122
[1]; 10 g a.i./ha
  Root Growth: 150
[1]; 100 g a.i./ha
  Root Growth: 123

## Cn1cc(C2=C(c3cn(CCCN)c4ccccc34)C(=O)NC2=O)c2ccccc21 [Compound 11]
[1]; 1 g a.i./ha
  Root Growth: 162
[1]; 10 g a.i./ha
  Root Growth: 169
[1]; 100 g a.i./ha
  Root Growth: 135

## Cn1cc(C2=C(c3c4n(c5ccccc35)CCC(CN)C4)C(=O)NC2=O)c2ccccc21 (stereo not drawn) [Compound 12]
[1]; 1 g a.i./ha
  Root Growth: 126
[1]; 10 g a.i./ha
  Root Growth: 150
[1]; 100 g a.i./ha
  Root Growth: 141
